Data: the supplement of paper PMC8612539
Values after ≈ are worked out from the molar mass of the structure shown.

Test system: Histophilus somni
Assay: minimum inhibitory concentration (MIC)
Experimental: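 Broth microdilution MIC (Sensititre BOPO7F bovine plate, CLSI methods) of 19 antimicrobials against field isolates of P. multocida, M. haemolytica, H. somni (deep nasopharyngeal swabs) and E. coli, Enterococcus spp. (rectal swabs) from weaned dairy heifers. Incubation 16-24 h at 35 C. MIC is the lowest concentration preventing visible growth. Values with <= or > lie at the tested range limits. Trimethoprim-sulfamethoxazole is given as the trimethoprim component of a 1:19 mixture.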

NC[C@@H]1O[C@H](O[C@H]2[C@@H](O)[C@H](O[C@@H]3[C@@H](O)[C@H](N)C[C@H](N)[C@H]3O[C@H]3O[C@H](CN)[C@@H](O)[C@H](O)[C@H]3N)O[C@@H]2CO)[C@H](N)[C@@H](O)[C@@H]1O [Neomycin]
Settings | minimum inhibitory concentration [µg/mL]
isolate (source animal id): 3 | 32 (≈ 52.1 µM)
isolate (source animal id): 4 | 32 (≈ 52.1 µM)
isolate (source animal id): 7 | 16 (≈ 26 µM)
isolate (source animal id): 14 | 16 (≈ 26 µM)
isolate (source animal id): 15 | 32 (≈ 52.1 µM)
isolate (source animal id): 17 | 16 (≈ 26 µM)
isolate (source animal id): 18 | 32 (≈ 52.1 µM)
isolate (source animal id): 20 | ≤ 4
isolate (source animal id): 23 | 32 (≈ 52.1 µM)
isolate (source animal id): 45 | 32 (≈ 52.1 µM)
isolate (source animal id): 53 | 32 (≈ 52.1 µM)
isolate (source animal id): 83 | 32 (≈ 52.1 µM)
isolate (source animal id): 88 | 32 (≈ 52.1 µM)
isolate (source animal id): 92 | > 32
isolate (source animal id): 93 | 8 (≈ 13 µM)
isolate (source animal id): 99 | > 32
isolate (source animal id): 100 | > 32
isolate (source animal id): 105 | 32 (≈ 52.1 µM)
isolate (source animal id): 107 | > 32
isolate (source animal id): 108 | > 32
isolate (source animal id): 109 | > 32
isolate (source animal id): 110 | > 32
isolate (source animal id): 117 | 16 (≈ 26 µM)
isolate (source animal id): 121 | 16 (≈ 26 µM)
isolate (source animal id): 123 | 32 (≈ 52.1 µM)
isolate (source animal id): 124 | 32 (≈ 52.1 µM)
isolate (source animal id): 127 | 32 (≈ 52.1 µM)
isolate (source animal id): 128 | 16 (≈ 26 µM)
isolate (source animal id): 130 | 16 (≈ 26 µM)
isolate (source animal id): 132 | 16 (≈ 26 µM)
isolate (source animal id): 135 | 16 (≈ 26 µM)
isolate (source animal id): 140 | 16 (≈ 26 µM)
isolate (source animal id): 141 | 16 (≈ 26 µM)
isolate (source animal id): 142 | > 32
isolate (source animal id): 144 | > 32
isolate (source animal id): 146 | > 32
isolate (source animal id): 147 | > 32
isolate (source animal id): 151 | 32 (≈ 52.1 µM)
isolate (source animal id): 153 | > 32
isolate (source animal id): 154 | > 32
isolate (source animal id): 156 | 32 (≈ 52.1 µM)
isolate (source animal id): 157 | > 32
isolate (source animal id): 176 | 32 (≈ 52.1 µM)
isolate (source animal id): 183 | 32 (≈ 52.1 µM)
isolate (source animal id): 186 | > 32
isolate (source animal id): 196 | > 32
isolate (source animal id): 198 | > 32
isolate (source animal id): 200 | > 32
isolate (source animal id): 206 | > 32
isolate (source animal id): 208 | > 32
isolate (source animal id): 210 | > 32
isolate (source animal id): 212 | 32 (≈ 52.1 µM)
isolate (source animal id): 215 | > 32
isolate (source animal id): 216 | > 32
isolate (source animal id): 218 | > 32
isolate (source animal id): 219 | > 32
isolate (source animal id): 224 | > 32
isolate (source animal id): 228 | 32 (≈ 52.1 µM)
isolate (source animal id): 230 | 32 (≈ 52.1 µM)
isolate (source animal id): 233 | > 32
isolate (source animal id): 238 | 16 (≈ 26 µM)
isolate (source animal id): 239 | 32 (≈ 52.1 µM)
isolate (source animal id): 241 | 32 (≈ 52.1 µM)
isolate (source animal id): 242 | 32 (≈ 52.1 µM)
isolate (source animal id): 243 | 32 (≈ 52.1 µM)
isolate (source animal id): 245 | > 32
isolate (source animal id): 246 | 32 (≈ 52.1 µM)
isolate (source animal id): 247 | 32 (≈ 52.1 µM)
isolate (source animal id): 248 | ≤ 4
isolate (source animal id): 250 | 32 (≈ 52.1 µM)
isolate (source animal id): 251 | 32 (≈ 52.1 µM)
isolate (source animal id): 252 | 32 (≈ 52.1 µM)
isolate (source animal id): 254 | 32 (≈ 52.1 µM)
isolate (source animal id): 258 | > 32
isolate (source animal id): 259 | > 32
isolate (source animal id): 262 | 32 (≈ 52.1 µM)
isolate (source animal id): 264 | 8 (≈ 13 µM)
isolate (source animal id): 265 | > 32
isolate (source animal id): 266 | > 32
isolate (source animal id): 267 | > 32
isolate (source animal id): 269 | > 32
isolate (source animal id): 271 | > 32
isolate (source animal id): 272 | > 32
isolate (source animal id): 274 | 32 (≈ 52.1 µM)
isolate (source animal id): 276 | ≤ 4
isolate (source animal id): 278 | > 32
isolate (source animal id): 280 | > 32
isolate (source animal id): 281 | > 32
isolate (source animal id): 283 | > 32
isolate (source animal id): 288 | > 32
isolate (source animal id): 291 | 32 (≈ 52.1 µM)
isolate (source animal id): 292 | > 32
isolate (source animal id): 296 | > 32
isolate (source animal id): 306 | > 32
isolate (source animal id): 336 | > 32
isolate (source animal id): 337 | > 32
isolate (source animal id): 341 | > 32

CC1(C)S[C@@H]2[C@H](NC(=O)Cc3ccccc3)C(=O)N2[C@H]1C(=O)O [Penicillin]
Settings | minimum inhibitory concentration [µg/mL]
isolate (source animal id): 3 | ≤ 0.12
isolate (source animal id): 4 | ≤ 0.12
isolate (source animal id): 7 | ≤ 0.12
isolate (source animal id): 14 | ≤ 0.12
isolate (source animal id): 15 | 0.25 (≈ 0.748 µM)
isolate (source animal id): 17 | ≤ 0.12
isolate (source animal id): 18 | ≤ 0.12
isolate (source animal id): 20 | ≤ 0.12
isolate (source animal id): 23 | ≤ 0.12
isolate (source animal id): 45 | ≤ 0.12
isolate (source animal id): 53 | ≤ 0.12
isolate (source animal id): 83 | ≤ 0.12
isolate (source animal id): 88 | ≤ 0.12
isolate (source animal id): 92 | ≤ 0.12
isolate (source animal id): 93 | ≤ 0.12
isolate (source animal id): 99 | ≤ 0.12
isolate (source animal id): 100 | ≤ 0.12
isolate (source animal id): 105 | ≤ 0.12
isolate (source animal id): 107 | ≤ 0.12
isolate (source animal id): 108 | ≤ 0.12
isolate (source animal id): 109 | ≤ 0.12
isolate (source animal id): 110 | ≤ 0.12
isolate (source animal id): 117 | ≤ 0.12
isolate (source animal id): 121 | ≤ 0.12
isolate (source animal id): 123 | ≤ 0.12
isolate (source animal id): 124 | ≤ 0.12
isolate (source animal id): 127 | ≤ 0.12
isolate (source animal id): 128 | ≤ 0.12
isolate (source animal id): 130 | ≤ 0.12
isolate (source animal id): 132 | ≤ 0.12
isolate (source animal id): 135 | ≤ 0.12
isolate (source animal id): 140 | ≤ 0.12
isolate (source animal id): 141 | ≤ 0.12
isolate (source animal id): 142 | ≤ 0.12
isolate (source animal id): 144 | ≤ 0.12
isolate (source animal id): 146 | ≤ 0.12
isolate (source animal id): 147 | ≤ 0.12
isolate (source animal id): 151 | ≤ 0.12
isolate (source animal id): 153 | ≤ 0.12
isolate (source animal id): 154 | ≤ 0.12
isolate (source animal id): 156 | ≤ 0.12
isolate (source animal id): 157 | ≤ 0.12
isolate (source animal id): 176 | ≤ 0.12
isolate (source animal id): 183 | ≤ 0.12
isolate (source animal id): 186 | ≤ 0.12
isolate (source animal id): 196 | ≤ 0.12
isolate (source animal id): 198 | ≤ 0.12
isolate (source animal id): 200 | ≤ 0.12
isolate (source animal id): 206 | ≤ 0.12
isolate (source animal id): 208 | ≤ 0.12
isolate (source animal id): 210 | ≤ 0.12
isolate (source animal id): 212 | ≤ 0.12
isolate (source animal id): 215 | ≤ 0.12
isolate (source animal id): 216 | ≤ 0.12
isolate (source animal id): 218 | ≤ 0.12
isolate (source animal id): 219 | ≤ 0.12
isolate (source animal id): 224 | ≤ 0.12
isolate (source animal id): 228 | ≤ 0.12
isolate (source animal id): 230 | ≤ 0.12
isolate (source animal id): 233 | ≤ 0.12
isolate (source animal id): 238 | ≤ 0.12
isolate (source animal id): 239 | ≤ 0.12
isolate (source animal id): 241 | ≤ 0.12
isolate (source animal id): 242 | ≤ 0.12
isolate (source animal id): 243 | ≤ 0.12
isolate (source animal id): 245 | 0.25 (≈ 0.748 µM)
isolate (source animal id): 246 | ≤ 0.12
isolate (source animal id): 247 | ≤ 0.12
isolate (source animal id): 248 | ≤ 0.12
isolate (source animal id): 250 | ≤ 0.12
isolate (source animal id): 251 | ≤ 0.12
isolate (source animal id): 252 | ≤ 0.12
isolate (source animal id): 254 | 0.25 (≈ 0.748 µM)
isolate (source animal id): 258 | ≤ 0.12
isolate (source animal id): 259 | ≤ 0.12
isolate (source animal id): 262 | ≤ 0.12
isolate (source animal id): 264 | ≤ 0.12
isolate (source animal id): 265 | 8 (≈ 23.9 µM)
isolate (source animal id): 266 | ≤ 0.12
isolate (source animal id): 267 | ≤ 0.12
isolate (source animal id): 269 | ≤ 0.12
isolate (source animal id): 271 | ≤ 0.12
isolate (source animal id): 272 | 8 (≈ 23.9 µM)
isolate (source animal id): 274 | ≤ 0.12
isolate (source animal id): 276 | ≤ 0.12
isolate (source animal id): 278 | ≤ 0.12
isolate (source animal id): 280 | 0.5 (≈ 1.5 µM)
isolate (source animal id): 281 | ≤ 0.12
isolate (source animal id): 283 | 0.25 (≈ 0.748 µM)
isolate (source animal id): 288 | ≤ 0.12
isolate (source animal id): 291 | ≤ 0.12
isolate (source animal id): 292 | ≤ 0.12
isolate (source animal id): 296 | ≤ 0.12
isolate (source animal id): 306 | ≤ 0.12
isolate (source animal id): 336 | ≤ 0.12
isolate (source animal id): 337 | ≤ 0.12
isolate (source animal id): 341 | ≤ 0.12
